# Test results taken from patent US10682320B2, “Method for inhibiting osteoclast development” (West Virginia University, priority 2012, dated 2020).
# What was measured:
# [1] = test system: store-operated Ca2+ entry (SOCe); assay: Store-operated Ca2+ entry (SOCe) in human osteoclasts; format: cell-based; conditions: n=3; data not shown
# Experimental: Human monocytes were isolated from normal buffy coat cells (60-80 ml) obtained with approval of institutional review boards by separation from donor blood, the white-cell depleted blood retained for clinical use. Human monocyte culture and differentiation were as reported (see, Yaroslayskly B B, Zhang Y, Kalla S E, Garcia P V, Sharrow A C, Li Y, Zaidi M, Wu C, Blair H C, “NO-dependent osteoclast motility: Reliance on cGMP-dependent protein kinase I and VASP”, J Cell Sci I, Vol. 18, pages 5479-5487, 2005). […]
# Ratiometric imaging of intracellular Ca^2+ using fura-2 was as described (see, Zhou et al., 2009 above). […] Ca^2+ measurements were made using a Leica DMI 6000B fluorescence microscope controlled by Slidebook Software. Fluorescence emission at 505 nm was monitored while alternating between 340 and 380 nm excitation wavelengths at a frequency of 0.67 Hz; intracellular Ca^2+ measurements are shown as 340/380 nm emission ratios obtained from groups (35-45) of single cells. […]
# The haloanilide DCPA blocks store-operated Ca^2+ channel function in Jurkat cells with no effect on ER Ca^2+ content. […] To address this, the present inventor examined HEK293 cells stably expressing Orai I and transiently transfected with YFP-STIMI and measured the effect of DCPA on CRAC current or Icrac. […]
# [2] = test system: human monocytes differentiating into osteoclasts; assay: Human osteoclast differentiation in vitro (multinucleation, TRAP); format: cell-based; conditions: 8 days after RANKL
# Experimental: Human monocytes were isolated from normal buffy coat cells (60-80 ml) obtained with approval of institutional review boards by separation from donor blood, the white-cell depleted blood retained for clinical use. Human monocyte culture and differentiation were as reported (see, Yaroslayskly B B, Zhang Y, Kalla S E, Garcia P V, Sharrow A C, Li Y, Zaidi M, Wu C, Blair H C, “NO-dependent osteoclast motility: Reliance on cGMP-dependent protein kinase I and VASP”, J Cell Sci I, Vol. 18, pages 5479-5487, 2005). Briefly, human monocytes cells were isolated from buffy coat on ficoll lymphocyte separation media and cultured at ˜6×10^5 cells per cm^2 in monocyte maintenance medium, Dulbecco's modified essential medium (DMEM) with 20 ng/ml of human m-CSF and 10% FBS, for 24 hours (h). After 24 h in culture, the medium was changed to osteoclast differentiation medium containing in addition of human 50 ng/ml of RANKL, with the additional inhibitors or activators as specified in results. Human osteoclast cultures were generally maintained for a minimum of 7 days before analysis, or longer times as specified in results.
# The effect of DCPA on human osteoclast differentiation 8 days after addition of RANKL was evaluated.
# [3] = biological target: CRAC channel (Homo sapiens, UniProt Q13586); assay: CRAC channel activity by Fura-2 fluorescence in Jurkat cells after thapsigargin; format: cell-based; design: endogenous in cells; host or cells: Jurkat cells
# Experimental: Ratiometric imaging of intracellular Ca^2+ using fura-2 was as described (see, Zhou et al., 2009 above). Briefly, cells on coverslips, in cation safe solution (107 mM NaCl, 7.2 mM KCl, 1.2 mM MgCl2, 11.5 mM glucose, 20 mM HEPES-NaOH, pH 7.2) were loaded with fura-2 acetoxymethyl ester (2 μM) for 30 min at 24° C. Cells were washed and fluorescent probe was allowed to de-esterify for 30 min. From signal remaining after saponin permeabilization, ˜85% of the dye was confined to the cytoplasm (see, Ma H-T, Patterson R L. van Rossum D B. Birnbaumer L, Mikoshiba K, Gill D L, “Requirement of the inositol trisphosphate receptor for activation of store-operated Ca^2+ channels”, Science, Vol. 287, pages 1647-1651, 2000). Ca^2+ measurements were made using a Leica DMI 6000B fluorescence microscope controlled by Slidebook Software. Fluorescence emission at 505 nm was monitored while alternating between 340 and 380 nm excitation wavelengths at a frequency of 0.67 Hz; intracellular Ca^2+ measurements are shown as 340/380 nm emission ratios obtained from groups (35-45) of single cells. Measurements shown are representative a minimum of three independent experiments.
# N-(3,4-dibromophenyl)propanamide]. Jurkat cells, a T cell line that is very sensitive to DCPA, was cultured with the indicated compounds, DCPA, DBPA, and ethanol (EtOH). CRAC channel activity was monitored using Fura-2 fluorescence using standard known techniques. Cells were incubated in each composition at 100 uM for 10 minutes prior to addition of the SERCA inhibitor thapsigargin (Tg) to induce SOCe. Decreased CRAC channel activity is clearly evident with DCPA and DBPA.
# Jurkat cells, a T cell line that is very sensitive to DCPA, was cultured with the indicated compositions of the present invention, namely, DNI, NM Propanil, and DNMNI. CRAC channel activity was monitored using Fura-2 fluorescence using standard known techniques. Cells were incubated in each composition at 100 uM for 10 minutes prior to addition of the SERCA inhibitor thapsigargin (Tg) to induce SOCe. Decreased CRAC channel activity is clearly evident with each of the compositions of the present invention. […] Each of the compositions of this invention achieve the results achieved with the known DCPA but without the burden of toxicity of DCPA that would accompany further metabolism of DCPA.
# [4] = biological target: T1, STIM I/Orai I interaction (Homo sapiens, UniProt Q13586); assay: 2-APB-induced STIM I ct translocation to plasma membrane; format: cell-based; conditions: DCPA 100 μM, 2-APB 50 μM
# T1 construct: the cytosolic fragment of STIM I (STIM 1 ct); expressed in transfected cells
# Experimental: HEK293 cells, maintained in DMEM with 10% FBS, were transfected with YFP-STIM I using Lipofectamine 2000 (Invitrogen, Carlsbad, Calif.) for 5 h (37° C.; 5% CO2) followed by a 24-h recovery. Cells were placed in 140 mM NaCl, 5 mM KCl, 1 mM MgCl2, 10 mM glucose, 15 mM HEPES, 0.1% BSA, 2 mM CaCl2 and analyzed by confocal microscopy for STIM I puncta formation using a Nikon phase-fluorescence microscope with CCD detectors (Diagnostic instruments, Sterling Heights, Mich.). Phase or transmitted light microscopy used 10-40× objectives and red, green, and blue filters to assemble color images. Fluorescence images used 1.4 NA 40× oil objectives. Red fluorescence used excitation at 530-560 nm, a 575 nm dichroic minor, and 580-650 nm emission filter. Transfection data were analyzed using Nikon NIS Elements Imaging Software. The effect of DCPA on STIM I/Orai I association was determined in wild-type HEK293 cells transfected with STIM I-YFP as described in Wang Y, Deng X, Zhou Y, Hendron E, Mancarelia S, Ritchie M F, Tang X D, Baba Y, Kurosaki T, Mori Y, Soboloff J, Gill DL, “STIM protein coupling in the activation of Orai channels”, Proc Natl Acad Sci USA, Vol. 106, pages 7391-7396, 2009. Experiments were performed on a Leica DMI 6000B fluorescence microscope controlled by Slidebook Software (Intelligent Imaging Innovations, Denver, Colo.).
# [5] = cited from earlier work
# Sequence of CRAC channel (Q13586 23-685): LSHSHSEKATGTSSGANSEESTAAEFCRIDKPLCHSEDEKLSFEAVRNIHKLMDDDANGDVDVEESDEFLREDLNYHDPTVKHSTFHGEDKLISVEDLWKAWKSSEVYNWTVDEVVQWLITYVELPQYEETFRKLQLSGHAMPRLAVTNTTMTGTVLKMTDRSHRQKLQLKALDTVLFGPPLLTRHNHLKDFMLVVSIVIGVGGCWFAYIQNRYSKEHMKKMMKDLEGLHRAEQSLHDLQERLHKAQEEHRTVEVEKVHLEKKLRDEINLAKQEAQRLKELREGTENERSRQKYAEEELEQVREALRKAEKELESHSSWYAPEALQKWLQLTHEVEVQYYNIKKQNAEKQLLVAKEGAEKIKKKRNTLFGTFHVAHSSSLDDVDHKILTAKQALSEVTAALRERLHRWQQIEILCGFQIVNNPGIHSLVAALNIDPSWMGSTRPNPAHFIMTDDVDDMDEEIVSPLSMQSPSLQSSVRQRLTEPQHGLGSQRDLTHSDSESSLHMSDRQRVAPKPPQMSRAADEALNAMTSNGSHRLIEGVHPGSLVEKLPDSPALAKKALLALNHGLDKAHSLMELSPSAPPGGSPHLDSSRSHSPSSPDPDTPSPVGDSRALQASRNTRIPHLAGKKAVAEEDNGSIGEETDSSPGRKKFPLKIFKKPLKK
# T1 sequence (Q13586 235-685 limits assumed): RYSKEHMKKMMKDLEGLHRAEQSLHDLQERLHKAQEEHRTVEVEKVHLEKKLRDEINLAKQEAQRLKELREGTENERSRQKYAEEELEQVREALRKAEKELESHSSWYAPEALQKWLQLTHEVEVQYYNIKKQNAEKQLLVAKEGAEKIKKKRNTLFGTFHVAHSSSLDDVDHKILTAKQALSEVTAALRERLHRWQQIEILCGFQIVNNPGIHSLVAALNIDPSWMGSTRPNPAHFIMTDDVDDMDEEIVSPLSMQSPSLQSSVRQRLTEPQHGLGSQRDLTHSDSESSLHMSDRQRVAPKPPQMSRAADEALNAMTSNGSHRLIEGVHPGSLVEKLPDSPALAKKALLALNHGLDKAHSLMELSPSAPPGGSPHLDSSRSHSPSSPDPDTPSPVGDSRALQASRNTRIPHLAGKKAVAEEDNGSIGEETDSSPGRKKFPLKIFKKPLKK
smiles,measurement,setting,value
"CCC(=O)Nc1ccc(Cl)c(Cl)c1 [DCPA, N-(3,4-dichlorophenyl)propanamide]",reduction of SOCe in osteoclasts,[1],27.5%
same,number of multinucleated TRAP+ cells,[2]; 1.0 μM,minimal effect
same,number of multinucleated cells,[2]; 10 and 100 μM,marked progressive reduction
same,TRAP activity,[2]; up to highest concentration (100 μM),no differences
same,effect on ER Ca2+ content,[3],no effect
same,store-operated Ca2+ channel function,[3],blocks
same,CRAC channel activity,"[3]; 100 uM, 10 minutes before thapsigargin",Decreased
same,ability of 2-APB to induce STIM I ct translocation to the plasma membrane,[4],dramatically attenuated
same,doses mice can tolerate,[5],> 100 mg/kg
same,doses producing frank immunotoxicity,[5]; mice,> 150 mg/kg
